Assays:
[1] = Long-term storage stability of antibiotics in combination with fosfomycin spiked in plasma/CAMHB (−30 °C, −80 °C); assay type: physicochemical; settings: for Stability verdict (within ±15% of nominal): CAMHB samples stored at −30 °C, 4 weeks; for Mean accuracy (%), Table S15 / Mean accuracy (%), Table S17 / Mean accuracy (%), Table S16 / Mean accuracy (%), Table S18: CAMHB; for Mean accuracy (%), Table S15 / Mean accuracy (%), Table S17 / Mean accuracy (%), Table S16 / Mean accuracy (%), Table S18 / Mean accuracy (%), Table S11 / Mean accuracy (%), Table S13 / Mean accuracy (%), Table S12 / Mean accuracy (%), Table S14: combination with fosfomycin; for Mean accuracy (%), Table S15 / Mean accuracy (%), Table S11: 2 weeks at -30 °C; for Mean accuracy (%), Table S17 / Mean accuracy (%), Table S13: 2 weeks at -80 °C; for Mean accuracy (%), Table S16 / Mean accuracy (%), Table S12: 4 weeks at -30 °C; for Mean accuracy (%), Table S18 / Mean accuracy (%), Table S14: 4 weeks at -80 °C; for Mean accuracy (%), Table S11 / Mean accuracy (%), Table S13 / Mean accuracy (%), Table S12 / Mean accuracy (%), Table S14: plasma
Method: (§1) The stability of fosfomycin in combination with other antibiotics in plasma/CAMHB was evaluated under various operational conditions. Spiked plasma/CAMHB samples were evaluated at 7 h and 15 h in the autosampler at 4 °C. Long-term stability was evaluated up to 4 weeks of antibiotic-spiked plasma/CAMHB samples at LQC, MQC, and HQC concentrations stored at −30 °C and −80 °C.

[2] = 32-day stability of stock solutions stored at −80 °C; assay type: physicochemical; settings: stock solution stored at -80 °C; peak area Day 32 vs Day 1
Method: Stability of stock solutions
All stock solutions of antibiotics and their corresponding stable-isotope variants were measured prior to cold storage at -80 °C and tested at 32 days later.
Stability was determined by comparing the peak area of each drug between its Day 1 and Day 32 measurement. Acceptable criteria for stability was met if the […]

[3] = Autosampler stability at 4 °C of extracted antibiotic-spiked plasma/CAMHB samples; settings: for Mean accuracy (%), Table S8 / Mean accuracy (%), Table S10: CAMHB extracted samples; for Mean accuracy (%), Table S8 / Mean accuracy (%), Table S7: 7 h autosampler 4 °C; for Mean accuracy (%), Table S10 / Mean accuracy (%), Table S9: 15 h autosampler 4 °C; for Mean accuracy (%), Table S7 / Mean accuracy (%), Table S9: plasma extracted samples
Method: as §1

[4] = Plasma concentrations in four patients on fosfomycin-based combination therapy (pilot clinical feasibility study, LCMS/MS)
Method: For 20 µL of plasma/CAMHB sample, 20 µL of water and 20 µL of stable-isotope as internal standard (IS) were added and vortexed. 180 µL of acetonitrile was added for protein precipitation and subsequently removed by centrifugation (12,700 rpm for 10 min at 25 °C). Finally, 15 µL of the supernatant was diluted with 225 µL formic acid in water (0.1% v/v), and 10 µL was injected for LCMS/MS analysis. For the calibration curve and QCs, 20 µL of the corresponding antibiotic standard working solution was added instead of water.
Samples were analyzed using a Nexera X2 LCMS 8060 system (Shimadzu, Kyoto, Japan). […] Electrospray ionization employing positive and negative ion mode with multiple reaction monitoring was used for analyte quantification (Table S1). Data were acquired and analyzed using Shimadzu LabSolutions (Version 5.97).
The assay method described in this paper has been applied to a pilot clinical feasibility study to evaluate the proportion of patients with sub-optimal β-lactam levels and the need for dose adjustments in infected patients with unpredictable pharmacokinetics. We described a case series of four patients where they received in vitro guided antibiotic combination therapy using a fosfomycin-based combination regimen to treat a carbapenem-resistant Gram-negative bacteria infection. These four patients were recruited into the BLAST-2 study as the combination regimen contains a β-lactam antibiotic. In this case series, two were undergoing intermittent hemodialysis, and two patients had normal renal function. In the two patients on hemodialysis, they were on a dosing regimen of 8 g of fosfomycin on dialysis days (3 g at least 4 h before dialysis session and 5 g after completion of dialysis). The remaining two patients received 8 g of fosfomycin given every 8 h as a prolonged infusion.
Blood samples (2–3 mL from an indwelling catheter) were collected four times over a dosing interval of the β-lactam dosing regimen and centrifuged (10 min at 3000 rpm) (Eppendorf 5425R). The resultant plasma was stored (within 15 min of collection) at −80 °C until assay.

[5] = HQC: nominal mg/L CAZ 150, FEP 200, PIP 250, ATM 300, MEM 200, DOR 175, LVX 30, CEFT 250, TZB 87.5, TGC 20, AVI 30, FOF 1000
[6] = LQC: nominal 1 mg/L (levofloxacin, avibactam 0.5; fosfomycin 10)
[7] = MQC: nominal mg/L CAZ 75, FEP 100, PIP 150, ATM 150, MEM 100, DOR 87.5, LVX 15, CEFT 125, TZB 43.75, TGC 10, AVI 15, FOF 500

Structure (SMILES) | Mean accuracy (%), Table S15 ([1]; HQC (nominal as E15)) [%] | Mean accuracy (%), Table S15 ([1]; LQC (nominal as E13)) [%] | Mean accuracy (%), Table S15 ([1]; MQC (nominal as E14)) [%] | Mean accuracy (%), Table S17 ([1]; HQC (nominal as E15)) [%] | Mean accuracy (%), Table S17 ([1]; LQC (nominal as E13)) [%] | Mean accuracy (%), Table S17 ([1]; MQC (nominal as E14)) [%] | Mean accuracy (%), Table S16 ([1]; HQC (nominal as E15)) [%] | Mean accuracy (%), Table S16 ([1]; LQC (nominal as E13)) [%] | Mean accuracy (%), Table S16 ([1]; MQC (nominal as E14)) [%] | Mean accuracy (%), Table S18 ([1]; HQC (nominal as E15)) [%] | Mean accuracy (%), Table S18 ([1]; LQC (nominal as E13)) [%] | Mean accuracy (%), Table S18 ([1]; MQC (nominal as E14)) [%] | Mean accuracy (%), Table S11 ([1]; HQC (nominal as E15)) [%] | Mean accuracy (%), Table S11 ([1]; LQC (nominal as E13)) [%] | Mean accuracy (%), Table S11 ([1]; MQC (nominal as E14)) [%] | Mean accuracy (%), Table S13 ([1]; HQC (nominal as E15)) [%] | Mean accuracy (%), Table S13 ([1]; LQC (nominal as E13)) [%] | Mean accuracy (%), Table S13 ([1]; MQC (nominal as E14)) [%] | Mean accuracy (%), Table S12 ([1]; HQC (nominal as E15)) [%] | Mean accuracy (%), Table S12 ([1]; LQC (nominal as E13)) [%] | also measured
C[C@H]1[C@H](NC(=O)/C(=N\OC(C)(C)C(=O)O)c2csc(N)n2)C(=O)N1S(=O)(=O)O [Aztreonam, aztreonam] | 102.6 | 102.2 | 92.5 | 100.2 | 101.3 | 95.1 | 92.5 | 66.5 | 91.8 | 98.4 | 109.7 | 96.0 | 97.3 | 103.1 | 90.2 | 97.2 | 87.6 | 94.5 | 96.1 | 106.4 | Stability verdict (within ±15% of nominal) [1]: instability; Mean accuracy (%), Table S12 ([1]; MQC (nominal as E14)): 96.2%; Mean accuracy (%), Table S14 ([1]; HQC (nominal as E15)): 97.8%; Mean accuracy (%), Table S14 ([1]; LQC (nominal as E13)): 104.2%; Mean accuracy (%), Table S14 ([1]; MQC (nominal as E14)): 101.4%; 32 Day Stability (%) [2]: 99.75%; Mean accuracy (%), Table S8 ([3]; HQC (nominal as E15)): 99.3%; Mean accuracy (%), Table S8 ([3]; LQC (nominal as E13)): 109.7%; Mean accuracy (%), Table S8 ([3]; MQC (nominal as E14)): 107.5%; Mean accuracy (%), Table S10 ([3]; HQC (nominal as E15)): 104.4%; Mean accuracy (%), Table S10 ([3]; LQC (nominal as E13)): 103.7%; Mean accuracy (%), Table S10 ([3]; MQC (nominal as E14)): 104.7%; Mean accuracy (%), Table S7 [3, 5]: 109.1%; Mean accuracy (%), Table S7 [3, 6]: 100.8%; Mean accuracy (%), Table S7 [3, 7]: 101.2%; Mean accuracy (%), Table S9 ([3]; HQC (nominal as E15)): 107.9%; Mean accuracy (%), Table S9 ([3]; LQC (nominal as E13)): 105.8%; Mean accuracy (%), Table S9 ([3]; MQC (nominal as E14)): 102.4%; Mean total plasma concentration (range) ([4]; Patient 002, intermittent hemodialysis, aztreonam 2 g every 12 h as a 2-h infusion): 8.8 to 86.2 mg/L
CO/N=C(\C(=O)N[C@@H]1C(=O)N2C(C(=O)[O-])=C(C[N+]3(C)CCCC3)CS[C@H]12)c1csc(N)n1 [Cefepime, cefepime] | 95.3 | 100.9 | 102.0 | 94.8 | 108.8 | 98.7 | 93.2 | 91.1 | 94.9 | 93.2 | 107.6 | 102.8 | 89.3 | 98.6 | 87.2 | 89.0 | 102.0 | 94.3 | 89.6 | 100.5 | Stability verdict (within ±15% of nominal) [1]: instability; Mean accuracy (%), Table S12 ([1]; MQC (nominal as E14)): 97.4%; Mean accuracy (%), Table S14 ([1]; HQC (nominal as E15)): 95.7%; Mean accuracy (%), Table S14 ([1]; LQC (nominal as E13)): 111.6%; Mean accuracy (%), Table S14 ([1]; MQC (nominal as E14)): 101.3%; 32 Day Stability (%) [2]: 108.51%; Mean accuracy (%), Table S8 ([3]; HQC (nominal as E15)): 96.7%; Mean accuracy (%), Table S8 ([3]; LQC (nominal as E13)): 112.0%; Mean accuracy (%), Table S8 ([3]; MQC (nominal as E14)): 103.5%; Mean accuracy (%), Table S10 ([3]; HQC (nominal as E15)): 101.7%; Mean accuracy (%), Table S10 ([3]; LQC (nominal as E13)): 106.6%; Mean accuracy (%), Table S10 ([3]; MQC (nominal as E14)): 114.1%; Mean accuracy (%), Table S7 [3, 5]: 86.5%; Mean accuracy (%), Table S7 [3, 6]: 94.2%; Mean accuracy (%), Table S7 [3, 7]: 101.1%; Mean total plasma concentration (range) ([4]; Patient 003, intermittent hemodialysis, cefepime 1 g every 12 h as a 4-h infusion): 21.6 to 157.5 mg/L
C[C@@H]1O[C@@H]1P(=O)(O)O [Fosfomycin, fosfomycin] | 98.5 | 103.1 | 94.7 | 96.3 | 110.6 | 99.5 | 94.6 | 103.6 | 95.4 | 101.8 | 104.7 | 98.2 | 98.4 | 102.2 | 92.1 | 95.6 | 101.8 | 94.6 | 94.0 | 104.5 | Mean accuracy (%), Table S12 ([1]; MQC (nominal as E14)): 92.4%; Mean accuracy (%), Table S14 ([1]; HQC (nominal as E15)): 97.7%; Mean accuracy (%), Table S14 ([1]; LQC (nominal as E13)): 100.8%; Mean accuracy (%), Table S14 ([1]; MQC (nominal as E14)): 90.6%; 32 Day Stability (%) [2]: 95.80%; Mean accuracy (%), Table S8 ([3]; HQC (nominal as E15)): 96.0%; Mean accuracy (%), Table S8 ([3]; LQC (nominal as E13)): 107.1%; Mean accuracy (%), Table S8 ([3]; MQC (nominal as E14)): 95.9%; Mean accuracy (%), Table S10 ([3]; HQC (nominal as E15)): 95.6%; Mean accuracy (%), Table S10 ([3]; LQC (nominal as E13)): 107.4%; Mean accuracy (%), Table S10 ([3]; MQC (nominal as E14)): 94.8%; Mean accuracy (%), Table S7 [3, 5]: 102.9%; Mean accuracy (%), Table S7 [3, 6]: 104.5%; Mean accuracy (%), Table S7 [3, 7]: 101.0%; Mean accuracy (%), Table S9 ([3]; HQC (nominal as E15)): 101.4%; Mean accuracy (%), Table S9 ([3]; LQC (nominal as E13)): 106.3%; Mean accuracy (%), Table S9 ([3]; MQC (nominal as E14)): 101.8%; Mean total plasma concentration (range) ([4]; four patients, samples measured in triplicates): 11.3 to 746.9 mg/L

— article PMC8772704, “Quantification of Fosfomycin in Combination with Nine Antibiotics in Human Plasma and Cation-Adjusted Mueller-Hinton II Broth via LCMS” (Antibiotics, 2022)
